Measured values from patent publication US7074789B2, “Kinase inhibitors” (Amgen Inc., priority 1999, dated 2006).
Where two headings read alike, the source gives them in different places.

Experiments:
Assay type in all cases: biochemical
AKT = target: T1, AKT (Homo sapiens, UniProt Q9Y243); test: Kinase inhibition assay (33P transfer), AKT; conditions: Table 2, kinase inhibition class; read-out: AKT3-1
T1 construct: Kinases are expressed as either kinase domains or full length constructs; made in house
Method in brief: (§1)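 Liquid scintillation counting of 33P on plate-bound synthetic substrates gives kinase activity. Plates are washed in 0.5% phosphoric acid first; kinases are tagged recombinant proteins from E. coli or baculovirus-infected High Five cells.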

Itk = target: T2, Itk (Homo sapiens, UniProt Q08881); test: Kinase inhibition assay (33P transfer), Itk; conditions: read-out: Itk-1
T2 construct: Kinases are expressed as either kinase domains or full length constructs; made in house
T2 sequence (Q08881 1-620): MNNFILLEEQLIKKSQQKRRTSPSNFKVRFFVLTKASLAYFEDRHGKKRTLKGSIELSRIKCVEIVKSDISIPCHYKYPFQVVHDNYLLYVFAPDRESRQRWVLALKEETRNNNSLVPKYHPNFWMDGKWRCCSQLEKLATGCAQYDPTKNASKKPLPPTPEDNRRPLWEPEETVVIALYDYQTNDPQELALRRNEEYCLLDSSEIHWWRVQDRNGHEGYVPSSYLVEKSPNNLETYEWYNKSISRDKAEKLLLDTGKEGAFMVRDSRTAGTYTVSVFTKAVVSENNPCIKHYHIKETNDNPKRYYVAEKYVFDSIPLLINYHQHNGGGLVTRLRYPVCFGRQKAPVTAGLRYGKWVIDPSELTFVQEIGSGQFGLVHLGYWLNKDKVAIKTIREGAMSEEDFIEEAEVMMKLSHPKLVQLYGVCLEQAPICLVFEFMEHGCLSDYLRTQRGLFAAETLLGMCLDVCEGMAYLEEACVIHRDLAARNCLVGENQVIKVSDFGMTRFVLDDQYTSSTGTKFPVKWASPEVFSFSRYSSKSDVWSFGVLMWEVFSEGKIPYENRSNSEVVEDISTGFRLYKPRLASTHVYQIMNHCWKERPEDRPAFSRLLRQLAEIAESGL
Method in brief: (§2)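 Activity read as 33P incorporation from ATP into poly(Glu,Tyr) 4:1 or poly(Arg,Ser) 3:1 substrate bound to microtiter plates, measured by scintillation after acid washing. Enzymes were affinity-purified GST or polyHis fusions (kinase domain or full length) from E. coli or baculovirus; IC50 = 50% reduction in labelled phosphate.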

c-Met = target: T3, c-Met (Homo sapiens, UniProt P08581); test: Kinase inhibition assay (33P transfer), c-Met; conditions: Table 2, kinase inhibition class; read-out: Met-1
T3 construct: Kinases are expressed as either kinase domains or full length constructs; made in house
Method in brief: as §2

Lck = target: T4, Lck (Homo sapiens, UniProt P06239); test: Kinase inhibition assay (33P transfer), Lck; conditions: read-out: Lck-1
T4 construct: Kinases are expressed as either kinase domains or full length constructs; made in house
Method in brief: as §1

Zap-70 = target: T5, Zap-70 (Homo sapiens, UniProt P43403); test: Kinase inhibition assay (33P transfer), Zap-70; conditions: read-out: Zap-1
T5 construct: Kinases are expressed as either kinase domains or full length constructs; made in house
T5 sequence (P43403 1-619): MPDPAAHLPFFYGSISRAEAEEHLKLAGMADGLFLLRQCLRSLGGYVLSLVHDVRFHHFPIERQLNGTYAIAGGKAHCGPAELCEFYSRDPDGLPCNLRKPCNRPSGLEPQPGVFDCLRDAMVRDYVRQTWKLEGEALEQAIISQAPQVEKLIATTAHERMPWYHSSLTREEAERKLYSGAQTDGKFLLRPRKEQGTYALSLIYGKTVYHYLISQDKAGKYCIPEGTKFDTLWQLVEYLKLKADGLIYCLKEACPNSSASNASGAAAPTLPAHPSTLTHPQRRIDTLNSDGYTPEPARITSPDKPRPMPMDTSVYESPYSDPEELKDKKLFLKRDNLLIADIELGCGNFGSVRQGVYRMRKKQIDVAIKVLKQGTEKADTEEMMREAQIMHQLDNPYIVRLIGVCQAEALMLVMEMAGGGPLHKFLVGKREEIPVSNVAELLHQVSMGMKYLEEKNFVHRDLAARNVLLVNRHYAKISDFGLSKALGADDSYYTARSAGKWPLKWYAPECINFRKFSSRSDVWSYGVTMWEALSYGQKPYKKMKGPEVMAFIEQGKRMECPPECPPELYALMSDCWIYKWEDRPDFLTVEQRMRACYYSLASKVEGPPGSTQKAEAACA
Method in brief: as §1

Kdr = target: T6, Kdr (Homo sapiens, UniProt P35968); test: Kinase inhibition assay (33P transfer), Kdr; conditions: read-out: KDR-1
T6 construct: Kinases are expressed as either kinase domains or full length constructs; made in house
Method in brief: as §1

EGFR = target: T7, EGFR (Homo sapiens, UniProt P00533); test: Kinase inhibition assay (33P transfer), EGFR; conditions: Table 2, kinase inhibition class; read-out: EGFR-1
T7 construct: Kinases are expressed as either kinase domains or full length constructs; made in house
Method in brief: as §2

T4 sequence (P06239 whole entry, species assumed, the tested form may be a part): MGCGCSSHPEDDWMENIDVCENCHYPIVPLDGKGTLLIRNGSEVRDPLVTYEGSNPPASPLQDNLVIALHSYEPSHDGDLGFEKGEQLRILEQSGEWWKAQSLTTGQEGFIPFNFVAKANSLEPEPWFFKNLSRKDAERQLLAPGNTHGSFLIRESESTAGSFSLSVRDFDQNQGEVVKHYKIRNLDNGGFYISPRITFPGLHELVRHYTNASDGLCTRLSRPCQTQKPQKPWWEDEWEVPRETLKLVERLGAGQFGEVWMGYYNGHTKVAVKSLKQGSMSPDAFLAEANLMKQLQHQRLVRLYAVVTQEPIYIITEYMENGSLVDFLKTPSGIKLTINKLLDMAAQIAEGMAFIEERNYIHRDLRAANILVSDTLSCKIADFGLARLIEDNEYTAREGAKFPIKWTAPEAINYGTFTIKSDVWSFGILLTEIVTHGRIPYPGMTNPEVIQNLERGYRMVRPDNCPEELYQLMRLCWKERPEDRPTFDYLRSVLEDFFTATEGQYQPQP
T1 sequence (Q9Y243 whole entry, the tested form may be a part): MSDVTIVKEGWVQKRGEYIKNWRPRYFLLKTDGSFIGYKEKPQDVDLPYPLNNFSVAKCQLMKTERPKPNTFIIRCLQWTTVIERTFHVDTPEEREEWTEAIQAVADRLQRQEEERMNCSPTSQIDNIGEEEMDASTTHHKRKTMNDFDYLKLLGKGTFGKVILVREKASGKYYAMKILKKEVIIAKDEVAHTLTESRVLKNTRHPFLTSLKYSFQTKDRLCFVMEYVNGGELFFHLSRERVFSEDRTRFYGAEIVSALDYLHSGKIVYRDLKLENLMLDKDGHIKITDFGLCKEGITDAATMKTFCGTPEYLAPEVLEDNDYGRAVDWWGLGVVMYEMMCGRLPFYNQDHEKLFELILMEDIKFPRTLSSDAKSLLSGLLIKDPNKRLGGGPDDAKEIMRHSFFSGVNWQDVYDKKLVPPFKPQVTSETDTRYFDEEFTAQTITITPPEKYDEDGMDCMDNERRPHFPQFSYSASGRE
T6 sequence (P35968 20-1356, species assumed): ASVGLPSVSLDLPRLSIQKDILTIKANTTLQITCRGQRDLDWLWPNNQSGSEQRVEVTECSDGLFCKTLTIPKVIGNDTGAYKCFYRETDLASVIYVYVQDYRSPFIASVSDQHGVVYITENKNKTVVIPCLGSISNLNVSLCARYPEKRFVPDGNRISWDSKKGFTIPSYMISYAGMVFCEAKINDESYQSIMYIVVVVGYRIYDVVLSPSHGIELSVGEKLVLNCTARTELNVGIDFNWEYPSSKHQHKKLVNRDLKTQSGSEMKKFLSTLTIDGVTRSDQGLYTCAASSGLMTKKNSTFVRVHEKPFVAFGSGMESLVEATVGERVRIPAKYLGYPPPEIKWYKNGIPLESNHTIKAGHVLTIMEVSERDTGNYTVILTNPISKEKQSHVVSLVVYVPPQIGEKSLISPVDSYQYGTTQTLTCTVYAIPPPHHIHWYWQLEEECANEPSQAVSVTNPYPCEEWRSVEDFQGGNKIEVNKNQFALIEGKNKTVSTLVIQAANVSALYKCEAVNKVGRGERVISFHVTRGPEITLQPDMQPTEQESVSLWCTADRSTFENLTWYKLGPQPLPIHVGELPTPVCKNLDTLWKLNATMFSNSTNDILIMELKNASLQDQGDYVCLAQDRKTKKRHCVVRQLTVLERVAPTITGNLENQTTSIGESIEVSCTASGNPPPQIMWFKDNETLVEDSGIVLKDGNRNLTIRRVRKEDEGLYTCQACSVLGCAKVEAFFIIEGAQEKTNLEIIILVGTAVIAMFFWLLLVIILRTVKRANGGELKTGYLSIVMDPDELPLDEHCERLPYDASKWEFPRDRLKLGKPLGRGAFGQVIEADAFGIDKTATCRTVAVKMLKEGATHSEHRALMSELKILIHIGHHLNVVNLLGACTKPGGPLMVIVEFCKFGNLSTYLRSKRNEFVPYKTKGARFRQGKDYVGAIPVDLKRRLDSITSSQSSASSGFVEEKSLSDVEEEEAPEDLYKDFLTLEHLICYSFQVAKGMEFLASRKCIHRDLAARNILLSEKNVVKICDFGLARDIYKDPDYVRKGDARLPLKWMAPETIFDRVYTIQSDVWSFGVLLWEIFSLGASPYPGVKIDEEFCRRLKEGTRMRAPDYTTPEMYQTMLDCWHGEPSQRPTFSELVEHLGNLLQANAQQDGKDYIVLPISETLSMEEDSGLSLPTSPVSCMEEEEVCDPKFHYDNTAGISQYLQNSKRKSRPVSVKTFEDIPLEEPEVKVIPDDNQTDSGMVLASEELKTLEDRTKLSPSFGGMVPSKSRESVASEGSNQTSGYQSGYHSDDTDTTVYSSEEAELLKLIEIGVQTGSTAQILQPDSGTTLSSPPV
T3 sequence (P08581 25-1390): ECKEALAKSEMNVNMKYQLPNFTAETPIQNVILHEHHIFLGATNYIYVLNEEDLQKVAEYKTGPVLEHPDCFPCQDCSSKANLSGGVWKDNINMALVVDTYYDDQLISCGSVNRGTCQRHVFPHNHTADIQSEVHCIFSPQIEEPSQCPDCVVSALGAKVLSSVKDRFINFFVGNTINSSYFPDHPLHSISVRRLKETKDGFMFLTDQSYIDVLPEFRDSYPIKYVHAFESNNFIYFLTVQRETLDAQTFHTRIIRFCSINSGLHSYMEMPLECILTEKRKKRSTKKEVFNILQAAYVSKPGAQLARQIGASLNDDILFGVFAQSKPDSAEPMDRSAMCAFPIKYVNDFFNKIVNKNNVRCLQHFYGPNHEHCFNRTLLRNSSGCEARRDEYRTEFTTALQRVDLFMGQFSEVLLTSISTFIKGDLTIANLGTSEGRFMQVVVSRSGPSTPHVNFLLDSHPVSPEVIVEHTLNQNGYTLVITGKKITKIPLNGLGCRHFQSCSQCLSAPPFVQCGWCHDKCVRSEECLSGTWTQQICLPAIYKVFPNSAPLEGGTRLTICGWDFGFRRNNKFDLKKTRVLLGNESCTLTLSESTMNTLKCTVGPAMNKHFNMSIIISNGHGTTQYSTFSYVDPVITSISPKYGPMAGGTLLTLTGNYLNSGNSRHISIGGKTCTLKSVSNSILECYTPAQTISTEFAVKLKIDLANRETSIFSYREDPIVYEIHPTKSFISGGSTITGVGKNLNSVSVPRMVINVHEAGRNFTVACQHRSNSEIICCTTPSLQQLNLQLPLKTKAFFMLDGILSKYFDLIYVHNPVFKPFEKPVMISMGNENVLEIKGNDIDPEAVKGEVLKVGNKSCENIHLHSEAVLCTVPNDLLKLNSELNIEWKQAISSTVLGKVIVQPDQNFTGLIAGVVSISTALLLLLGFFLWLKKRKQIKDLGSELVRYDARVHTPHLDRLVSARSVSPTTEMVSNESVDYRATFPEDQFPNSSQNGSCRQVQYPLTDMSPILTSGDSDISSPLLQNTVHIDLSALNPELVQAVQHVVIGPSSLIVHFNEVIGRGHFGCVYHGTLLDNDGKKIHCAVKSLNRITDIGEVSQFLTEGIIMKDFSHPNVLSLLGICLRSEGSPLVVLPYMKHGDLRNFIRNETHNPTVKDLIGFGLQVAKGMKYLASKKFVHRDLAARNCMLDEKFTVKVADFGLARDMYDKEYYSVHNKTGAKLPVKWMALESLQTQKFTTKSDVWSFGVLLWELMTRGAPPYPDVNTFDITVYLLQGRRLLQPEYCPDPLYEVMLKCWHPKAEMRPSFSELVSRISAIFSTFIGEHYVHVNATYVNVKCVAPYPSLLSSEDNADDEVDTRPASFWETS
T7 sequence (P00533 25-1210, species assumed): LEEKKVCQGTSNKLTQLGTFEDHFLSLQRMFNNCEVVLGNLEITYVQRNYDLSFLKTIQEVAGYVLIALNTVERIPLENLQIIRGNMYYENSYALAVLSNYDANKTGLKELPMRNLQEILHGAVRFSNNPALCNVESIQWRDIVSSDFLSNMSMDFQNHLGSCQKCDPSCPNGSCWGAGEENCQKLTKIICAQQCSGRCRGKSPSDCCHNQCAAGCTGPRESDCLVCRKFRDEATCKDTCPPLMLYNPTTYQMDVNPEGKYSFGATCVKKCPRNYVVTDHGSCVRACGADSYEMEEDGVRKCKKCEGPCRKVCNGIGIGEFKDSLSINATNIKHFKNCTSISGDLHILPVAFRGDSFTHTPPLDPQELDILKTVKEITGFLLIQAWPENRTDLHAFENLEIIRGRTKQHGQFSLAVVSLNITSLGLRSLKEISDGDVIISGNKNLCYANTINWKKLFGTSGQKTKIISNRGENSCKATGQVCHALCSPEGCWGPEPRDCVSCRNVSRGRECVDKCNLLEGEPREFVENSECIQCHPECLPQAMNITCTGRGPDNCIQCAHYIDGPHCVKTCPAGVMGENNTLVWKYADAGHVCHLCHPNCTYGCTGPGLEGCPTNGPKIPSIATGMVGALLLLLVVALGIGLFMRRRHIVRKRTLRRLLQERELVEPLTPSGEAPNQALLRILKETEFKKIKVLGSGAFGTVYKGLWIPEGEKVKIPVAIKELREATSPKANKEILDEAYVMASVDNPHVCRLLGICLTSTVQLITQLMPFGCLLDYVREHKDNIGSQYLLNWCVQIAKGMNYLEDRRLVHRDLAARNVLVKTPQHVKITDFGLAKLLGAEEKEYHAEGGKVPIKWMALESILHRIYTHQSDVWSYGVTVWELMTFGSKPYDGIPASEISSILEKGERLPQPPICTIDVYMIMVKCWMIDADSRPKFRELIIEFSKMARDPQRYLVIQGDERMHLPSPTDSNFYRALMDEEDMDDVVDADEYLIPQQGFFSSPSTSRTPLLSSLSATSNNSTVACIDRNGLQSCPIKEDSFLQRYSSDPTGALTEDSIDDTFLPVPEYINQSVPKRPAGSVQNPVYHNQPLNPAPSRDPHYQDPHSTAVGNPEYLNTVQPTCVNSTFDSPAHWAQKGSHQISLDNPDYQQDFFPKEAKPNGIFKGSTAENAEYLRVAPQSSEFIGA

Row | IC50 (AKT) | IC50 (Itk) | IC50 (c-Met) | IC50 (Lck) | IC50 (Zap-70) | IC50 (Kdr) | IC50 (EGFR) | IC50 (Itk; Table 3) | IC50 (Lck; Table 3) | IC50 (Zap-70; Table 3) | IC50 (Kdr; Table 3) | Structure (SMILES)
1 | > 12.5 µM | 1.11 to 6.66 µM | 6.66 to 9.71 µM | 1.11 to 6.66 µM | > 12.5 µM | < 1.11 µM | > 12.5 µM | – | – | – | – | CC(=O)Nc1ccc(Nc2ncnc(-n3c(N)nc4ccccc43)n2)cc1 [Compound 475]
2 | > 14.7 µM | > 14.7 µM | > 14.7 µM | > 14.7 µM | > 14.7 µM | > 14.7 µM | > 14.7 µM | – | – | – | – | O=c1[nH]c2ccccc2n1-c1ncnc(Nc2ncccn2)n1 [Compound 490]
3 | > 12 µM | – | > 12 µM | – | – | – | 1.07 to 6.41 µM | > 12 µM | > 12 µM | > 12 µM | 1.07 to 6.41 µM | COc1cc(Nc2ncnc(Nc3nc(C)cs3)n2)cc(OC)c1OC [Compound 468]
4 | > 10.4 µM | – | > 10.4 µM | – | – | – | 5.54 to 8.08 µM | > 10.4 µM | > 10.4 µM | > 10.4 µM | 0.923 to 5.54 µM | O=C(Nc1cccc(Nc2ncnc(-n3c(=O)[nH]c4ccccc43)n2)c1)O[C@@H]1CCOC1 [Compound 455]
5 | 1.14 to 6.81 µM | 1.14 to 6.81 µM | 1.14 to 6.81 µM | 1.14 to 6.81 µM | > 12.8 µM | 1.14 to 6.81 µM | 1.14 to 6.81 µM | – | – | – | – | CC(C)(C)c1cc(Nc2ncnc(Nc3ccc(C(N)=O)cc3)n2)[nH]n1 [Compound 502]
6 | > 9.18 µM | – | > 9.18 µM | – | – | – | > 9.18 µM | > 9.18 µM | > 9.18 µM | > 9.18 µM | > 9.18 µM | COc1cc(Nc2ncnc(-n3c(=O)sc4cc(Br)ccc43)n2)cc(OC)c1OC [Compound 426]
7 | > 13.3 µM | 1.18 to 7.07 µM | 1.18 to 7.07 µM | 1.18 to 7.07 µM | > 13.3 µM | 1.18 to 7.07 µM | 1.18 to 7.07 µM | – | – | – | – | CC(C)(C)c1cc(Nc2ncnc(Nc3cccc(CO)c3)n2)[nH]n1 [Compound 499]
8 | > 10.9 µM | – | > 10.9 µM | – | – | – | > 10.9 µM | > 10.9 µM | > 10.9 µM | > 10.9 µM | 5.83 to 8.51 µM | COc1cc(Nc2ncnc(-n3c(=O)sc4ccccc43)n2)cc(OC)c1OC [Compound 424]
9 | > 9.38 µM | 0.834 to 5.01 µM | > 9.38 µM | 5.01 to 7.3 µM | > 9.38 µM | > 9.38 µM | 7.3 to 9.38 µM | – | – | – | – | COc1ccc(-c2cn[nH]c2Nc2ncnc(Nc3cc(OC)c(OC)c(OC)c3)n2)cc1OC [Compound 470]
10 | > 10.6 µM | – | > 10.6 µM | – | – | – | 8.26 to 10.6 µM | > 10.6 µM | > 10.6 µM | > 10.6 µM | 8.26 to 10.6 µM | COc1cc(Nc2ncnc(-c3ccc(N4CCNCC4)nc3)n2)cc(OC)c1OC [Compound 436]
11 | > 8.2 µM | 6.38 to 8.2 µM | > 8.2 µM | > 8.2 µM | > 8.2 µM | 0.729 to 4.38 µM | > 8.2 µM | – | – | – | – | CCOC(=O)C(Cc1cccc(Nc2ncnc(Nc3cc(-c4ccco4)n[nH]3)n2)c1)(NC(C)=O)C(=O)OCC [Compound 481]
12 | > 17.8 µM | > 17.8 µM | > 17.8 µM | > 17.8 µM | > 17.8 µM | > 17.8 µM | > 17.8 µM | – | – | – | – | CC(C)(C)c1cc(Nc2ncnc(Cl)n2)[nH]n1 [Compound 975]
13 | > 10.3 µM | > 10.3 µM | > 10.3 µM | 0.912 to 5.47 µM | > 10.3 µM | > 10.3 µM | > 10.3 µM | – | – | – | – | CC(C)(C)OC(=O)NCc1cccc(Nc2ncnc(Nc3cc(C(C)(C)C)n[nH]3)n2)c1 [Compound 987]
14 | > 12.7 µM | > 12.7 µM | > 12.7 µM | > 12.7 µM | > 12.7 µM | 6.77 to 9.88 µM | > 12.7 µM | – | – | – | – | O=c1[nH]c2ccccc2n1-c1ncnc(Nc2ccc3ccccc3c2)n1 [Compound 684]
